For assay [1], the system named is IL-1β production in PMA-differentiated THP-1 cells. The assay is described as follows: Measurement of IL-1β production in PMA-differentiated THP-1 cells (ELISA, 4 hours). Type of assay: cell-based, human. To be noted: Homo sapiens, THP-1, human IL-1β production, assayed using one or more of the described procedures, read-out: NLRP3 hIL1B IC50. The essentials: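 THP-1 cells differentiated with PMA (10 μg/ml, 24 h), replated at 1×10^6 cells/ml in RPMI with 2% FBS and exposed to compounds (e.g. 0.1–100 μM, 1% DMSO final) for 4 hours. IL-1β in cell-free supernatant quantified by ELISA against vehicle control.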
(In an ELISA, binding on a coated surface is turned into a signal by an enzyme label.)

For another assay, the target named is T1, human TLR7 (Homo sapiens, UniProt Q9NYK1).
T1 construct: host or cells: human HEK-Blue cells (HEK293-derived) co-expressing TLR7 and an NF-kB/AP1-inducible SEAP reporter
T1 sequence (Q9NYK1 27-1049): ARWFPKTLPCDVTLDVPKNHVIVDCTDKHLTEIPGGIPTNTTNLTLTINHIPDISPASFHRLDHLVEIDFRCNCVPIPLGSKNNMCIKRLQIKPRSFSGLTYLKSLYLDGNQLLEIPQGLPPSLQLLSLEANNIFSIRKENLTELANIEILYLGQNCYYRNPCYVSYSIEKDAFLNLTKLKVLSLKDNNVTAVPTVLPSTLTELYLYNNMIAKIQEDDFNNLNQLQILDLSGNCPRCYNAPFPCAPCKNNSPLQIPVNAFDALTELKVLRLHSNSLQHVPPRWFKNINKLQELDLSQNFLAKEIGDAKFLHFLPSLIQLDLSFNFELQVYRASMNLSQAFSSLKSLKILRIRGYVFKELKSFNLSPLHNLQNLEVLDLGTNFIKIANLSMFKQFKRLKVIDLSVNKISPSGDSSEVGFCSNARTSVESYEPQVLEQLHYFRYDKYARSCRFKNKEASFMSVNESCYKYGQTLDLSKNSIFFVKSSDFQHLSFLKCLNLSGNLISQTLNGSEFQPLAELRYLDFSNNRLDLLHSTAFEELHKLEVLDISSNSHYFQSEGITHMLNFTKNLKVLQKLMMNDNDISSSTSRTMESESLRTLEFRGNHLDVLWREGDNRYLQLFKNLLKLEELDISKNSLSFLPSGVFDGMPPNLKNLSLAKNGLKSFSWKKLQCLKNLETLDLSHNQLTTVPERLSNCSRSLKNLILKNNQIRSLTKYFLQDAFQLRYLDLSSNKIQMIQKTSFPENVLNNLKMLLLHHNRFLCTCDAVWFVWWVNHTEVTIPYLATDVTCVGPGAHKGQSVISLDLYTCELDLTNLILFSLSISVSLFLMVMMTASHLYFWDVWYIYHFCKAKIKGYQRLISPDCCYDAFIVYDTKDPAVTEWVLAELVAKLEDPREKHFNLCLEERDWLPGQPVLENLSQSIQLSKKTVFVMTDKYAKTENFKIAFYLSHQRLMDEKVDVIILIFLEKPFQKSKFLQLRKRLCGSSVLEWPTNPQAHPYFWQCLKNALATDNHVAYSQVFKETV
The assay is described as follows: In vitro human TLR7 binding reporter assay (HEK-Blue, NF-kB/AP1-inducible SEAP). As to conditions: HEK-Blue human TLR7 SEAP reporter cells; activity range classes; read-out: TLR7 Agonist EC50. Type of assay: cell-based. The essentials:
(§1)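 Cells are seeded and grown for 24 h. Compounds or DMSO are then added and incubated 18 h at 37 °C. Quanti-Blue is added, and SEAP is read after thirty minutes. EC50 values are normalized, with RLU from 50 μM reference standard setting 100% Ymax.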
On the technique in general: Reporter assays use an easily measured gene product as a stand-in for the process of interest.

The next assay concerns the target T2, human TLR8 (Homo sapiens, UniProt Q9NR97).
T2 construct: host or cells: human HEK-Blue cells (HEK293-derived) co-expressing TLR8 and an NF-kB/AP1-inducible SEAP reporter
T2 sequence (Q9NR97 27-1041): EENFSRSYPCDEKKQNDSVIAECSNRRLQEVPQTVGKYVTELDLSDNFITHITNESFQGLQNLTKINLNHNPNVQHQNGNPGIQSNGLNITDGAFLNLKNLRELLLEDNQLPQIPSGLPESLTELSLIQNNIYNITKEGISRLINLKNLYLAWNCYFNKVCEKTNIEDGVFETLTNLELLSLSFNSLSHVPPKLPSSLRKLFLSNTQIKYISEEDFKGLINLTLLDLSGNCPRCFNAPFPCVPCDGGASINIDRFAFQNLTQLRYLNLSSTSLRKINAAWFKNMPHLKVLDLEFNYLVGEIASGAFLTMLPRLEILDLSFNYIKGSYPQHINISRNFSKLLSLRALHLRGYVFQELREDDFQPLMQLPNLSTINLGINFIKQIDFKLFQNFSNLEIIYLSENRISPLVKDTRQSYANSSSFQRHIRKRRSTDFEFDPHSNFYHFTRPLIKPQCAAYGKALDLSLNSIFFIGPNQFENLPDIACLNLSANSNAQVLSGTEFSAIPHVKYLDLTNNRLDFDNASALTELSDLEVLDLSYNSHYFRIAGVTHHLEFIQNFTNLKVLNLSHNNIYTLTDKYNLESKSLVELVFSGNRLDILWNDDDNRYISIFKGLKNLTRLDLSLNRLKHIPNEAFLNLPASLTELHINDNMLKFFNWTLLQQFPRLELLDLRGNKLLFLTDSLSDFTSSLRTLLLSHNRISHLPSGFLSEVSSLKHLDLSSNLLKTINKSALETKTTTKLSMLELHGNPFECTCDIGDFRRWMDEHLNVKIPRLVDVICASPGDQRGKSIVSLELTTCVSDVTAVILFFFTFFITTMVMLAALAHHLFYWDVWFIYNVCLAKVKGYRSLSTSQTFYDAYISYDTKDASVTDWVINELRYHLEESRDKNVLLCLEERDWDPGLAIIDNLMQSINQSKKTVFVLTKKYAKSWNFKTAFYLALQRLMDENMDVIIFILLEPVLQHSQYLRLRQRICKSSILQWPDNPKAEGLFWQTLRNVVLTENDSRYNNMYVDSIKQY
Kind of assay: In vitro human TLR8 binding reporter assay (HEK-Blue, NF-kB/AP1-inducible SEAP). Type of assay: cell-based. As to conditions: HEK-Blue human TLR8 SEAP reporter cells; activity range classes; read-out: TLR8 Agonist EC50. In short, it runs like this: as §1

Some results are limits rather than exact numbers.

As usually defined, the IC50 is the midpoint of a concentration-inhibition curve. One may read the EC50 as the concentration giving half of the maximal effect.

For the compound `Cn1cncc1CNc1cc(N)nc2cc(-c3ccn[nH]3)ccc12` [Compound 252], the IC50 in assay [1] was 1.69 µM. Moreover, the EC50 on human TLR7 and on human TLR8 was above 100 µM each time.
Consider `CNc1cc(N)nc2cc(-c3ccn[nH]3)ccc12` [Compound 253], for which the IC50 in assay [1] was 0.27 µM. Further, the EC50 at human TLR7 and on human TLR8 was above 100 µM in each case.
For `COCC(O)CNc1cc(N)nc2cc(-c3ccn[nH]3)ccc12` (stereo not drawn) [Compound 254], the IC50 in assay [1] was 0.21 µM. The EC50 on human TLR7 and at human TLR8 was above 100 µM in each case.
Turning to `COCCNc1cc(N)nc2cc(-c3ccn[nH]3)ccc12` [Compound 255], the IC50 in assay [1] was determined as 0.27 µM. Also, the EC50 at human TLR7 and at human TLR8 was above 100 µM throughout.
For `Nc1cc(NCc2ccccc2)c2ccc(-c3ccn[nH]3)cc2n1` [Compound 256], the IC50 in assay [1] was found to be 0.22 µM. The EC50 on human TLR7 and on human TLR8 was above 100 µM each time.
For `CS(=O)(=O)Nc1cccc(CNc2cc(N)nc3cc(-c4ccn[nH]4)ccc23)c1` [Compound 257], in assay [1], the IC50 amounted to 0.68 µM. Besides, the EC50 at human TLR7 and at human TLR8 was above 100 µM each time.
Turning to `CS(=O)(=O)Nc1ccc(CNc2cc(N)nc3cc(-c4ccn[nH]4)ccc23)cc1` [Compound 258], the IC50 in assay [1] worked out at 1.84 µM. The EC50 at human TLR7 and at human TLR8 was above 100 µM throughout.
Take `COc1cccc(CNc2cc(N)nc3cc(-c4ccn[nH]4)ccc23)c1` [Compound 259]: in assay [1], the IC50 stood at 0.64 µM. For the same compound, the EC50 on human TLR7 and on human TLR8 was above 100 µM throughout.
`Nc1cc(NCc2cccc(F)c2)c2ccc(-c3ccn[nH]3)cc2n1` [Compound 260]: the IC50 in assay [1] is 0.32 µM. Moreover, the EC50 on human TLR7 and on human TLR8 was above 100 µM in each case.
Take `Nc1cc(NCCc2cc[nH]n2)c2ccc(-c3ccn[nH]3)cc2n1` [Compound 261]: the half-maximal inhibitory concentration (IC50) in assay [1] stood at 0.14 µM. Also, the EC50 on human TLR7 and at human TLR8 was above 100 µM in each case.
`Nc1cc(NCCn2cccn2)c2ccc(-c3ccn[nH]3)cc2n1` [Compound 262]: in assay [1], the concentration for half-maximal inhibition (IC50) amounted to 0.12 µM. The EC50 on human TLR7 and at human TLR8 was above 100 µM throughout.
As to `CN(Cc1cc[nH]n1)c1cc(N)nc2cc(-c3ccn[nH]3)ccc12` [Compound 263], the IC50 in assay [1] was found to be 2.87 µM. Moreover, the EC50 on human TLR7 and at human TLR8 was above 100 µM throughout.
`CN(Cc1cccnc1)c1cc(N)nc2cc(-c3ccn[nH]3)ccc12` [Compound 264]: the IC50 in assay [1] was 2.89 µM. In addition, the EC50 at human TLR7 and on human TLR8 was above 100 µM each time.
`Nc1cc(N2CCCOCC2)c2ccc(-c3ccn[nH]3)cc2n1` [Compound 265]: in assay [1], the IC50 turned out to be 0.35 µM. Also, the EC50 at human TLR7 and at human TLR8 was above 100 µM in each case.
Take `Nc1cc(NCC2COCCO2)c2ccc(-c3ccn[nH]3)cc2n1` (stereo not drawn) [Compound 266]: the concentration for half-maximal inhibition (IC50) in assay [1] amounted to 0.39 µM. In addition, the EC50 at human TLR7 and on human TLR8 was above 100 µM each time.
Take `Nc1cc(NC[C@@H]2CNCCO2)c2ccc(-c3ccn[nH]3)cc2n1` [Compound 267]: in assay [1], the IC50 is 1.59 µM. The EC50 at human TLR7 and on human TLR8 was above 100 µM in each case.
For the compound `Nc1cc(NC[C@@H]2COCCN2)c2ccc(-c3ccn[nH]3)cc2n1` [Compound 268], the IC50 in assay [1] came out at 0.97 µM. Further, the concentration giving a half-maximal response (EC50) on human TLR7 and on human TLR8 was above 100 µM in each case.
In the case of `Nc1cc(NC[C@H]2COCCN2)c2ccc(-c3ccn[nH]3)cc2n1` [Compound 269], in assay [1], the IC50 stood at 1.15 µM. Besides, the EC50 at human TLR7 and at human TLR8 was above 100 µM each time.
For `CC(C)(C)OC(=O)N1CC(Nc2cc(N)nc3cc(-c4ccn[nH]4)ccc23)C1` [Compound 270], the IC50 in assay [1] amounted to 7.37 µM. The EC50 at human TLR7 and on human TLR8 was above 100 µM each time.
With `Nc1cc(N2CC(F)(F)C2)c2ccc(-c3ccn[nH]3)cc2n1` [Compound 271], in assay [1], the IC50 was found to be 0.36 µM. Also, the EC50 at human TLR7 and at human TLR8 was above 100 µM in each case.
Take `Nc1cc(N2CCC[C@@H]2CO)c2ccc(-c3ccn[nH]3)cc2n1` [Compound 272]: the IC50 in assay [1] stood at 6.22 µM. The EC50 on human TLR7 and on human TLR8 was above 100 µM each time.
Take `Nc1cc(NC2CCC2)c2ccc(-c3ccn[nH]3)cc2n1` [Compound 273]: the IC50 in assay [1] was 0.17 µM. Moreover, the half-maximal effective concentration (EC50) at human TLR7 and on human TLR8 was above 100 µM throughout.
For `Nc1cc(N2CCCC(CO)C2)c2ccc(-c3ccn[nH]3)cc2n1` (stereo not drawn) [Compound 274], the IC50 in assay [1] was determined as 1.98 µM. Moreover, the EC50 on human TLR7 and at human TLR8 was above 100 µM each time.
As to `Nc1cc(NC2CCOC2)c2ccc(-c3ccn[nH]3)cc2n1` (stereo not drawn) [Compound 275], the half-inhibitory concentration (IC50) in assay [1] turned out to be 0.2 µM. Besides, the EC50 on human TLR7 and at human TLR8 was above 100 µM each time.
In the case of `Nc1cc(N[C@@H]2CCOC2)c2ccc(-c3ccn[nH]3)cc2n1` [Compound 276], the IC50 in assay [1] was 0.52 µM. Further, the EC50 at human TLR7 and at human TLR8 was above 100 µM each time.
As for `Nc1cc(N[C@H]2CCOC2)c2ccc(-c3ccn[nH]3)cc2n1` [Compound 277], in assay [1], the IC50 came to 0.22 µM. Besides, the EC50 on human TLR7 and on human TLR8 was above 100 µM each time.
On to `Nc1cc(NC2CCOCC2)c2ccc(-c3ccn[nH]3)cc2n1` [Compound 278], for which the half-maximal inhibitory concentration (IC50) in assay [1] turned out to be 1.31 µM. The EC50 on human TLR7 and at human TLR8 was above 100 µM throughout.
`Nc1cc(NC2CCCOC2)c2ccc(-c3ccn[nH]3)cc2n1` (stereo not drawn) [Compound 279]: the IC50 in assay [1] turned out to be 0.33 µM. The EC50 on human TLR7 and on human TLR8 was above 100 µM each time.
Turning to `Nc1cc(NC2COC2)c2ccc(-c3ccn[nH]3)cc2n1` [Compound 280], the IC50 in assay [1] was determined as 1.57 µM. In addition, the EC50 at human TLR7 and at human TLR8 was above 100 µM in each case.
With `Nc1cc(NC2CCCCC2)c2ccc(-c3ccn[nH]3)cc2n1` [Compound 281], the IC50 in assay [1] came to 0.58 µM. Moreover, the EC50 at human TLR7 and on human TLR8 was above 100 µM in each case.
Take `Nc1cc(N[C@H]2CC[C@H](O)CC2)c2ccc(-c3ccn[nH]3)cc2n1` [Compound 282]: the IC50 in assay [1] stood at 5.66 µM. In addition, the EC50 on human TLR7 and at human TLR8 was above 100 µM each time.

The record behind these values is patent US12171756B2, “NLRP3 modulators” (Innate Tumor Immunity, Inc., priority 2017, dated 2024).
